From patent US20230234943A1, “TREX1 INHIBITORS AND USES THEREOF” (Tempest Therapeutics, Inc., priority 2020, published 2023) come the findings set out here.

SMILES strings stand for the structures. Bounds are passed on as bounds.

This assay has as its target T1, Human TREX1 enzyme (amino acids 1-242) (Homo sapiens, UniProt Q9NSU2).
T1 construct: Human TREX1 enzyme (amino acids 1-242)
T1 sequence (Q9NSU2 1-242): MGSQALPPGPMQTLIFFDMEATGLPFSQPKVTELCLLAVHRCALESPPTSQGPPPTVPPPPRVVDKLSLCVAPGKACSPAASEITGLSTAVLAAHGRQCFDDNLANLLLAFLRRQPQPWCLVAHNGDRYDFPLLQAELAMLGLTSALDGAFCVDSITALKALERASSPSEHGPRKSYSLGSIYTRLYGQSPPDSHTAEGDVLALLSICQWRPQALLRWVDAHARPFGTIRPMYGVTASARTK
The assay can be described thus: Human TREX1 enzymatic assay with dsDNA native oligonucleotide (Picogreen fluorescence). Type of assay: biochemical. The note with it: 2 mM dithiothreitol in assay buffer; 50 nM dsDNA oligonucleotide; 30 min preincubation at 25° C.; read-out: TREX1/Human + DTT IC50 AVG. An outline of the steps: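 Remaining dsDNA quantified by Picogreen fluorescence after EDTA quench, with no-enzyme and DMSO wells as controls. Reactions used 50 nM annealed oligonucleotide for 5–15 min at 25 °C, after a 30 min compound–enzyme preincubation (0.8–0.16 nM TREX1; 2% DMSO; pH 7.7 Tris, 5 mM MgCl2).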

`COc1cc(-c2nc3cc(-c4ccccn4)ccc3[nH]2)c(C)c(O)c1O` [Example 289, 6-methoxy-3-methyl-4-[5-(pyridin-2-yl)-1H-1,3-benzodiazol-2-yl]benzene-1,2-diol]: the IC50 is 1 to 10 µM.
Take `COc1cc(-c2nc3ccc(-c4ccccn4)cc3n2C2(C)COC2)c(F)c(O)c1O` [Example 182, 3-fluoro-6-methoxy-4-[1-(3-methyloxetan-3-yl)-6-(pyridin-2-yl)-1H-1,3-benzodiazol-2-yl]benzene-1,2-diol]: the IC50 was 0.1 to 1 µM.
In the case of `CS(=O)(=O)N1CCN(c2ccc3[nH]c(-c4ccc(C(=O)O)c(O)c4)nc3c2)CC1` [Example 117, 2-hydroxy-4-(5-(4-(methylsulfonyl)piperazin-1-yl)-1H-benzo[d]imidazol-2-yl)benzoic acid] it was 10 to 100 µM; in that of `COc1cc(-c2nc3ccc(N4CCC4)cc3n2C2CCOC2)cc(C(=O)O)c1O` (centres unmarked) [Example 166, 5-(6-(azetidin-1-yl)-1-(tetrahydrofuran-3-yl)-1H-benzo[d]imidazol-2-yl)-2-hydroxy-3-methoxybenzoic acid], 10 to 100 µM; in that of `COc1cc(-c2nc3ccc(C(=O)NC4CC4)cc3n2C2(C)COC2)c(F)c(O)c1O` [Example 253, N-cyclopropyl-2-(2-fluoro-3,4-dihydroxy-5-methoxyphenyl)-1-(3-methyloxetan-3-yl)-1H-benzo[d]imidazole-6-carboxamide], not above 0.1 µM.
In the case of `COc1cc(-c2nc3cc(NC(=O)c4ccccc4)ccc3n2C2(C)COC2)c(F)c(O)c1O` [Example 303, N-(2-(2-fluoro-3,4-dihydroxy-5-methoxyphenyl)-1-(3-methyloxetan-3-yl)-1H-benzo[d]imidazol-5-yl)benzamide] it was not above 0.1 µM; in that of `COc1cc(-c2nc3ccccc3n2C2CCOC2)cc(O)c1O` (centres unmarked) [Example 13, 3-methoxy-5-(1-(tetrahydrofuran-3-yl)-1H-benzo[d]imidazol-2-yl)benzene-1,2-diol], 10 to 100 µM; in that of `CCNC(=O)c1ccc2nc(-c3cc(OC)c(O)c(O)c3F)n(C3(C)COC3)c2c1` [Example 262, N-ethyl-2-(2-fluoro-3,4-dihydroxy-5-methoxyphenyl)-1-(3-methyloxetan-3-yl)-1H-benzo[d]imidazole-6-carboxamide], not above 0.1 µM.
`COc1cc(-c2nc3cc(NC(=O)CCO)ccc3n2C2(C)COC2)c(F)c(O)c1O` [Example 224, N-(2-(2-fluoro-3,4-dihydroxy-5-methoxyphenyl)-1-(3-methyloxetan-3-yl)-1H-benzo[d]imidazol-5-yl)-3-hydroxypropanamide]: the IC50 was not above 0.1 µM.
The figure for `COc1cc(-c2nc3ccc(NC(C)=O)cc3n2C2(C)COC2)c(F)c(O)c1O` [Example 207, N-[2-(2-fluoro-3,4-dihydroxy-5-methoxyphenyl)-1-(3-methyloxetan-3-yl)-1H-1,3-benzodiazol-6-yl]acetamide] is not above 0.1 µM.
In the case of `COc1cc(-c2nc3ccncc3s2)cc(O)c1O` [Example 77, 3-methoxy-5-(thiazolo[5,4-c]pyridin-2-yl)benzene-1,2-diol] it was 10 to 100 µM; in that of `COc1c(O)c(O)cc(-c2nc3cc(N4CCC4)ccc3n2C2COC2)c1F` [Example 298, 5-(5-(azetidin-1-yl)-1-(oxetan-3-yl)-1H-benzo[d]imidazol-2-yl)-4-fluoro-3-methoxybenzene-1,2-diol], 1 to 10 µM.
In the case of `COc1cc(-c2nc3cnncc3[nH]2)cc(O)c1O` [Example 14, 5-(1H-imidazo[4,5-d]pyridazin-2-yl)-3-methoxybenzene-1,2-diol] it was more than 100 µM; in that of `COc1cc(-c2nc3cc(N4CCN(C)CC4)ccc3[nH]2)cc(O)c1O` [Example 24, 3-methoxy-5-(5-(4-methylpiperazin-1-yl)-1H-benzo[d]imidazol-2-yl)benzene-1,2-diol], more than 100 µM.
Consider `COc1cc(-c2nc3cc(N4CCC4)ccc3n2C2COC2)c(C)c(O)c1O` [Example 187, 4-(5-(azetidin-1-yl)-1-(oxetan-3-yl)-1H-benzo[d]imidazol-2-yl)-6-methoxy-3-methylbenzene-1,2-diol], for which the IC50 lay in the range of 1 to 10 µM.
In the case of `COc1cc(-c2nc3ccc(-n4cccn4)cc3n2C2(C)COC2)c(F)c(O)c1O` [Example 184, 3-fluoro-6-methoxy-4-[1-(3-methyloxetan-3-yl)-6-(1H-pyrazol-1-yl)-1H-1,3-benzodiazol-2-yl]benzene-1,2-diol] it was not above 0.1 µM; in that of `COc1cc(-c2nc3cc(N(C)C)ccc3[nH]2)cc(O)c1O` [Example 92, 5-(5-(dimethylamino)-1H-benzo[d]imidazol-2-yl)-3-methoxybenzene-1,2-diol], more than 100 µM; in that of `COc1cc(-c2nc3cc(N4CCC4)ccc3n2C2CCC2)c(C)c(O)c1O` [Example 193], 0.1 to 1 µM.
`COc1cc(-c2nc3cc(N4CCN(C(=O)c5cccc(Cl)c5)CC4)ccc3[nH]2)cc(O)c1O` [Example 123, (3-chlorophenyl)(4-(2-(3,4-dihydroxy-5-methoxyphenyl)-1H-benzo[d]imidazol-5-yl)piperazin-1-yl)methanone]: the IC50 is 10 to 100 µM.
The figure for `COc1cc(-c2nc3cc(NC(=O)c4cnoc4)ccc3n2C2(C)COC2)c(F)c(O)c1O` [Example 206, N-(2-(2-fluoro-3,4-dihydroxy-5-methoxyphenyl)-1-(3-methyloxetan-3-yl)-1H-benzo[d]imidazol-5-yl)isoxazole-4-carboxamide] is 0.1 to 1 µM; for `COc1cc(-c2nc3ccc(NC(=O)c4ccc(F)cc4)cc3n2C2(C)COC2)c(F)c(O)c1O` [Example 305, 4-fluoro-N-(2-(2-fluoro-3,4-dihydroxy-5-methoxyphenyl)-1-(3-methyloxetan-3-yl)-1H-benzo[d]imidazol-6-yl)benzamide] it is not above 0.1 µM; for `COc1cc(-c2nc3cc(N4CC(O)C4)ccc3n2C2COC2)c(F)c(O)c1O` [Example 294, 3-fluoro-4-(5-(3-hydroxyazetidin-1-yl)-1-(oxetan-3-yl)-1H-benzo[d]imidazol-2-yl)-6-methoxybenzene-1,2-diol] it is 1 to 10 µM.
Turning to `COc1cc(-c2nc3cc(N4CCN(CC(F)(F)F)CC4)ccc3[nH]2)cc(O)c1O` [Example 52, 3-methoxy-5-(5-(4-(2,2,2-trifluoroethyl)piperazin-1-yl)-1H-benzo[d]imidazol-2-yl)benzene-1,2-diol], the IC50 was more than 100 µM.
In the case of `C#CCCC1(CCC(=O)N2CCN(c3ccc4[nH]c(-c5cc(O)c(O)c(OC)c5)nc4c3)CC2)N=N1` [Example 88, 3-(3-(but-3-yn-1-yl)-3H-diazirin-3-yl)-1-(4-(2-(3,4-dihydroxy-5-methoxyphenyl)-1H-benzo[d]imidazol-5-yl)piperazin-1-yl)propan-1-one] it was more than 100 µM; in that of `COc1ccc(C(=O)N2CCN(c3ccc4[nH]c(-c5cc(O)c(O)c(OC)c5)nc4c3)CC2)cc1` [Example 85, (4-(2-(3,4-dihydroxy-5-methoxyphenyl)-1H-benzo[d]imidazol-5-yl)piperazin-1-yl)(4-methoxyphenyl)methanone], 1 to 10 µM; in that of `O=C(O)c1cc(-c2nc3ccccc3n2C2COC2)ccc1O` [Example 3, 2-hydroxy-5-(1-(oxetan-3-yl)-1H-benzo[d]imidazol-2-yl)benzoic acid], more than 100 µM.
With `COc1cc(-c2nc3cc(N4CCOC4=O)ccc3n2C2(C)COC2)c(F)c(O)c1O` [Example 271, 3-(2-(2-fluoro-3,4-dihydroxy-5-methoxyphenyl)-1-(3-methyloxetan-3-yl)-1H-benzo[d]imidazol-5-yl)oxazolidin-2-one], the IC50 was not above 0.1 µM.
Turning to `O=C(O)c1ccc(-c2nc3ccccc3n2C2COC2)c(F)c1O` [Example 141, 3-fluoro-2-hydroxy-4-(1-(oxetan-3-yl)-1H-benzo[d]imidazol-2-yl)benzoic acid], the IC50 was more than 100 µM.
The figure for `O=C(O)c1ccc(-c2nc3ccncc3[nH]2)cc1O` [Example 2, 2-hydroxy-4-(3H-imidazo[4,5-c]pyridin-2-yl)benzoic acid] is 10 to 100 µM.
As for `COc1cc(-c2nc3cc(N4CCC4)cc(C)c3[nH]2)cc(O)c1O` [Example 293, 5-(5-(azetidin-1-yl)-7-methyl-1H-benzo[d]imidazol-2-yl)-3-methoxybenzene-1,2-diol], the IC50 was more than 100 µM.
In the case of `COc1cc(-c2nc3cc(N4CCN(C5CCCCC5)CC4)ccc3[nH]2)cc(O)c1O` [Example 57, 5-(5-(4-cyclohexylpiperazin-1-yl)-1H-benzo[d]imidazol-2-yl)-3-methoxybenzene-1,2-diol] it was more than 100 µM; in that of `COCCn1c(-c2cc(OC)c(O)c(O)c2C)nc2ccccc21` [Example 172, 6-methoxy-4-[1-(2-methoxyethyl)-1H-1,3-benzodiazol-2-yl]-3-methylbenzene-1,2-diol], more than 100 µM.
For the molecule `COc1c(C)c(-c2nc3cc(N4CCC4)ccc3n2C2CCC2)cc(O)c1O` [Example 299, 5-(5-(azetidin-1-yl)-1-cyclobutyl-1H-benzo[d]imidazol-2-yl)-3-methoxy-4-methylbenzene-1,2-diol], the IC50 was 10 to 100 µM.
For `Oc1cc(-c2nc3ccccc3n2C2COC2)c2c(c1O)OCC2` [Example 162, 4-(1-(oxetan-3-yl)-1H-benzo[d]imidazol-2-yl)-2,3-dihydrobenzofuran-6,7-diol], the IC50 is more than 100 µM.
In the case of `COc1cc(-c2nc3ccc(C(=O)N(C)C)cc3n2C2(C)COC2)c(F)c(O)c1O` [Example 245, 2-(2-fluoro-3,4-dihydroxy-5-methoxyphenyl)-N,N-dimethyl-1-(3-methyloxetan-3-yl)-1H-benzo[d]imidazole-6-carboxamide] it was 1 to 10 µM.
